Drawing on the supplement of paper PMC7695840, this text covers IC50 for 26 molecules.

Test [1] concerns Staphylococcus aureus MW2 (mecA+). The experiment in a line: IC50 (growth, competition assay). The following applies: cefoxitin: subinhibitory. The procedure, abridged: (§1)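 Two fluorescent S. aureus MW2 strains, one carrying and one lacking the resistance gene, were pre-induced, mixed 1:1 and grown unshaken in LB in 1536-well plates for 20 h at 37 °C and 90% humidity with a subinhibitory drug dose set each day. Compounds were tested on five- or nine-point 2-fold gradients in two dye-swapped replicates. DsRed (540/590) and GFP (485/520) signals were scaled per plate between the medians of single-strain controls, and No Treatment was then set to 0.5. For each strain, IC50 was taken as the dose that halved the No Treatment signal, or else the maximal signal.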

In test [2] the test system is Staphylococcus aureus MW2 delta-mecA (mecA-). Description: IC50 (growth, competition assay). The following applies: cefoxitin: subinhibitory. The method, boiled down: as §1

Where a name gives a salt, the structure may show the parent alone.

Usually IC50 stands for the point on the concentration scale where inhibition reaches its midpoint. A low value points to greater potency. As for `CC1=C2C(=CO[C@H](C)[C@H]2C)C(O)=C(C(=O)O)C1=O` [CITRININ], the IC50 in test [1] (fluorescent label: DsRed) is 29.8 µM; in test [1] (fluorescent label: GFP), 47.6 µM; in test [2] (fluorescent label: DsRed) it was 26.2 µM; in test [2] (fluorescent label: GFP) it was 29.4 µM.

Take `CC(C)(C)c1ccc(S(=O)(=O)/C=C/C#N)cc1` [Bay 11-7085]: the IC50 in test [1] (fluorescent label: DsRed), in test [1] (fluorescent label: GFP), in test [2] (fluorescent label: DsRed) and in test [2] (fluorescent label: GFP) was under 9.85 µM each time.

For the molecule `CO[C@H]1/C=C/O[C@@]2(C)Oc3c(C)c(O)c4c(O)c(c5c(nc6cc(C)ccn65)c4c3C2=O)NC(=O)/C(C)=C\C=C\[C@H](C)[C@H](O)[C@@H](C)[C@@H](O)[C@@H](C)[C@H](OC(C)=O)[C@@H]1C` [XIFAXAN], the half-inhibitory concentration (IC50) in test [1] (fluorescent label: DsRed), in test [1] (fluorescent label: GFP), in test [2] (fluorescent label: DsRed) and in test [2] (fluorescent label: GFP) was under 9.85 µM in each case.

As to `FC(F)(F)c1ccc(Nc2nc3ccc(Oc4ccnc(-c5ncc(C(F)(F)F)[nH]5)c4)cc3[nH]2)cc1` [Raf265 derivative], the IC50 was 19.6 µM in test [1] (fluorescent label: DsRed), 23.4 µM in test [1] (fluorescent label: GFP), under 9.85 µM in test [2] (fluorescent label: DsRed) and under 9.85 µM in test [2] (fluorescent label: GFP).

For `C/C(=C\C(=O)OCCCCCCCCC(=O)O)C[C@@H]1OC[C@H](C[C@@H]2O[C@H]2[C@@H](C)[C@H](C)O)[C@@H](O)[C@H]1O` [BACTROBAN], the IC50 in test [1] (fluorescent label: DsRed), in test [1] (fluorescent label: GFP), in test [2] (fluorescent label: DsRed) and in test [2] (fluorescent label: GFP) was under 9.85 µM throughout.

As to `CC[C@H]1OC(=O)[C@H](C)C(=O)[C@H](C)[C@@H](O[C@@H]2O[C@H](C)C[C@H](N(C)C)[C@H]2O)[C@](C)(OC)C[C@@H](C)C(=O)[C@H](C)[C@H]2N(CCCCn3cnc(-c4cccnc4)c3)C(=O)O[C@]12C` [KETEK], the IC50 in test [1] (fluorescent label: DsRed), in test [1] (fluorescent label: GFP), in test [2] (fluorescent label: DsRed) and in test [2] (fluorescent label: GFP) was under 9.85 µM in each case.

On to `CN(C)[C@@H]1C(O)=C(C(N)=O)C(=O)[C@@]2(O)C(O)=C3C(=O)c4c(O)cccc4[C@@](C)(O)[C@H]3[C@H](O)[C@@H]12` [TERRAMYCIN], for which the half-inhibitory concentration (IC50) in test [1] (fluorescent label: DsRed), in test [1] (fluorescent label: GFP), in test [2] (fluorescent label: DsRed) and in test [2] (fluorescent label: GFP) was under 9.85 µM in each case.

For the molecule `CCOC(=O)CCC(=O)O[C@H]1[C@H](O[C@@H]2[C@@H](C)[C@H](O[C@H]3C[C@@](C)(OC)[C@@H](O)[C@H](C)O3)[C@@H](C)C(=O)O[C@H](CC)[C@@](C)(O)[C@H](O)[C@@H](C)C(=O)[C@H](C)C[C@@]2(C)O)O[C@H](C)C[C@@H]1N(C)C` [ERYPED], the IC50 in test [1] (fluorescent label: DsRed), in test [1] (fluorescent label: GFP), in test [2] (fluorescent label: DsRed) and in test [2] (fluorescent label: GFP) was under 9.85 µM each time.

As to `CC[C@H]1OC(=O)[C@H](C)[C@@H](O[C@H]2C[C@@](C)(OC)[C@@H](O)[C@H](C)O2)[C@H](C)[C@@H](O[C@@H]2O[C@H](C)C[C@H](N(C)C)[C@H]2O)[C@](C)(O)C[C@@H](C)/C(=N\OCOCCOC)[C@H](C)[C@@H](O)[C@]1(C)O` [Roxithromycin (Roxl-150)], the IC50 in test [1] (fluorescent label: DsRed) was 4.26 µM; in test [1] (fluorescent label: GFP), 3.99 µM; in test [2] (fluorescent label: DsRed), under 0.498 µM; in test [2] (fluorescent label: GFP), under 0.498 µM.

Turning to `CC(=O)O[C@H]1C[C@@]2(C)[C@@H](C[C@@H](O)[C@H]3[C@@]4(C)CC[C@@H](O)[C@@H](C)[C@@H]4CC[C@@]32C)/C1=C(\CCC=C(C)C)C(=O)O` [Fusidic acid sodium], the IC50 in test [1] (fluorescent label: DsRed), in test [1] (fluorescent label: GFP), in test [2] (fluorescent label: DsRed) and in test [2] (fluorescent label: GFP) was under 9.85 µM in each case.

For the molecule `CN1CCN(C2Cc3ccccc3Sc3ccc(Cl)cc32)CC1` (centres undefined) [(?)-Octoclothepin maleate], the half-inhibitory concentration (IC50) in test [1] (fluorescent label: DsRed) is 73.8 µM; in test [1] (fluorescent label: GFP), 61.8 µM; in test [2] (fluorescent label: DsRed), under 9.85 µM; in test [2] (fluorescent label: GFP), 29.3 µM.

With `CO[C@H]1/C=C/O[C@@]2(C)Oc3c(C)c(O)c4c(c3C2=O)C2=NC3(CCN(CC(C)C)CC3)NC2=C(NC(=O)/C(C)=C\C=C\[C@H](C)[C@H](O)[C@@H](C)[C@@H](O)[C@@H](C)[C@H](OC(C)=O)[C@@H]1C)C4=O` [Rifabutin], the 50% inhibitory concentration (IC50) in test [1] (fluorescent label: DsRed), in test [1] (fluorescent label: GFP), in test [2] (fluorescent label: DsRed) and in test [2] (fluorescent label: GFP) was under 0.498 µM in each case.

As for `N=C(NCCCCCCNC(=N)NC(=N)Nc1ccc(Cl)cc1)NC(=N)Nc1ccc(Cl)cc1` [LISIUM], the IC50 in test [1] (fluorescent label: DsRed), in test [1] (fluorescent label: GFP), in test [2] (fluorescent label: DsRed) and in test [2] (fluorescent label: GFP) was under 9.85 µM throughout.

Turning to `CCCc1c(-c2ccc(O)cc2)nn(-c2ccc(O)cc2)c1-c1ccc(O)cc1` [1,3,5-tris(4-hydroxyphenyl)-4-propyl-1H-pyrazole], the IC50 in test [1] (fluorescent label: DsRed) was 12.5 µM; in test [1] (fluorescent label: GFP), 20.3 µM; in test [2] (fluorescent label: DsRed) it was under 9.85 µM; in test [2] (fluorescent label: GFP) it was under 9.85 µM.

Take `CC(C)n1cnc2c(NCCc3ccc(O)cc3)nc(-c3csc4ccccc34)nc21` [StemRegenin 1]: the half-maximal inhibitory concentration (IC50) in test [1] (fluorescent label: DsRed) came to 25.6 µM; in test [1] (fluorescent label: GFP) it was 29.9 µM; in test [2] (fluorescent label: DsRed) it was 15.1 µM; in test [2] (fluorescent label: GFP), 11.2 µM.

As to `COC1=C2C[C@@H](C)C[C@H](OC)[C@H](O)[C@@H](C)/C=C(\C)[C@H](OC(N)=O)[C@@H](OC)/C=C\C=C(/C)C(=O)NC(=CC1=O)C2=O` [Geldanamycin], the half-inhibitory concentration (IC50) in test [1] (fluorescent label: DsRed), in test [1] (fluorescent label: GFP), in test [2] (fluorescent label: DsRed) and in test [2] (fluorescent label: GFP) was under 9.85 µM in each case.

For `CC1(C)S[C@@H]2[C@H](NC(=O)[C@H](NC(=O)N3CCNC3=O)c3ccccc3)C(=O)N2[C@H]1C(=O)O` [AZLIN], the IC50 in test [1] (fluorescent label: DsRed) is 32.2 µM; in test [1] (fluorescent label: GFP) it was 47.2 µM; in test [2] (fluorescent label: DsRed), under 9.85 µM; in test [2] (fluorescent label: GFP) it was under 9.85 µM.

For the molecule `N[C@@H](C(=O)N[C@@H]1C(=O)N2C(C(=O)O)=C(Cl)CS[C@H]12)c1ccccc1` [Cefaclor (Ceclor)], the IC50 in test [1] (fluorescent label: DsRed) is 7.22 µM; in test [1] (fluorescent label: GFP), 7.26 µM; in test [2] (fluorescent label: DsRed) it was under 0.498 µM; in test [2] (fluorescent label: GFP) it was under 0.498 µM.

`O=C(/C=C/c1ccc(O)c(O)c1)c1ccc(O)cc1O` [Butein]: the 50% inhibitory concentration (IC50) stood at 92.3 µM in test [1] (fluorescent label: DsRed), 98.5 µM in test [1] (fluorescent label: GFP), 21.3 µM in test [2] (fluorescent label: DsRed) and 30.4 µM in test [2] (fluorescent label: GFP).

In the case of `CN[C@H]1CC[C@@H](c2ccc(Cl)c(Cl)c2)c2ccccc21` [ZOLOFT], the IC50 stood at 103 µM in test [1] (fluorescent label: DsRed), 106 µM in test [1] (fluorescent label: GFP), 31.1 µM in test [2] (fluorescent label: DsRed) and 15.5 µM in test [2] (fluorescent label: GFP).

For `Cc1cc2c(C(C)C)c(O)c(O)c(C=O)c2c(O)c1-c1c(C)cc2c(C(C)C)c(O)c(O)c(C=O)c2c1O` [Gossypol], the 50% inhibitory concentration (IC50) in test [1] (fluorescent label: DsRed), in test [1] (fluorescent label: GFP), in test [2] (fluorescent label: DsRed) and in test [2] (fluorescent label: GFP) was under 9.85 µM in each case.

Take `COC(=O)C1=C(C)NC(C)=C(C(=O)OC)C1c1cccc(NC(=O)NCCCN2CCC(c3cccc(OC)c3)CC2)c1`: the IC50 in test [1] (fluorescent label: DsRed) is 45.5 µM; in test [1] (fluorescent label: GFP), 54.8 µM; in test [2] (fluorescent label: DsRed), 18.2 µM; in test [2] (fluorescent label: GFP), 13.4 µM.

In the case of `c1ccc2c(Cc3c[nH]c4ccccc34)c[nH]c2c1` [3,3'-DIINDOLYLMETHANE], the IC50 in test [1] (fluorescent label: DsRed) came to 67.4 µM; in test [1] (fluorescent label: GFP), 105 µM; in test [2] (fluorescent label: DsRed), 21.7 µM; in test [2] (fluorescent label: GFP), 21.4 µM.

Turning to `CO[C@H]1C[C@H](O[C@H]2[C@H](C)[C@@H](O[C@@H]3O[C@H](C)C[C@H](N(C)C)[C@H]3OC(C)=O)[C@@H](C)C[C@@]3(CO3)C(=O)[C@H](C)[C@@H](OC(C)=O)[C@@H](C)[C@@H](C)OC(=O)[C@@H]2C)O[C@@H](C)[C@@H]1OC(C)=O` [EVRAMYCIN], the IC50 in test [1] (fluorescent label: DsRed) is 33.7 µM; in test [1] (fluorescent label: GFP), 27.8 µM; in test [2] (fluorescent label: DsRed), under 9.85 µM; in test [2] (fluorescent label: GFP) it was under 9.85 µM.

For `CSc1ccc2c(c1)N(CCC1CCCCN1C)c1ccccc1S2` (centres undefined) [Thioridazine hydrochloride], the 50% inhibitory concentration (IC50) is 57.7 µM in test [1] (fluorescent label: DsRed), 50.3 µM in test [1] (fluorescent label: GFP), under 9.85 µM in test [2] (fluorescent label: DsRed) and 14.8 µM in test [2] (fluorescent label: GFP).

On to `CCN(CC)CCN(Cc1ccc(-c2ccc(C(F)(F)F)cc2)cc1)C(=O)Cn1c(SCc2ccc(F)cc2)nc(=O)c2c1CCC2`, for which the IC50 in test [1] (fluorescent label: DsRed) was under 9.85 µM; in test [1] (fluorescent label: GFP) it was 10.2 µM; in test [2] (fluorescent label: DsRed), under 9.85 µM; in test [2] (fluorescent label: GFP), under 9.85 µM.
